Literature values as cited in patent publication US20090117079A1, “METHODS AND MATERIALS FOR TREATING OR PREVENTING DISEASES/DISORDERS MEDIATED BY ALCOHOL DEHYDROGENASE” (priority 2007, published 2009).

System: alcohol dehydrogenase (ADH I)
Settings: competitive inhibition of ADH I in humans; affinity of ethanol relative to methanol

CCO [ethanol]
ethanol/methanol affinity ratio: 10/1
